According to ChEMBL document CHEMBL4316608, “Artemisinin-indole and artemisinin-imidazole hybrids: Synthesis, cytotoxic evaluation and reversal effects on multidrug resistance in MCF-7/ADR cells” (Bioorg Med Chem Lett, 2019):

Test system: L02
Assay: Cytotoxicity against human L02 cells measured after 48 hrs by MTT assay
Format: cell-based
Conditions: L02, 48 h

Structure (SMILES)	IC50
C[C@H]1[C@H](OC(=O)CCC(=O)OCCCn2cc(C#N)nc2Cl)O[C@@H]2O[C@@]3(C)CC[C@H]4[C@H](C)CC[C@@H]1[C@@]24OO3	72.8 µM
C[C@@H]1CC[C@H]2[C@@H](C)C(OC(=O)c3c[nH]c4ccc(Cl)cc34)O[C@@H]3O[C@@]4(C)CC[C@@H]1[C@]32OO4 (stereo partly specified)	31 µM
C[C@@H]1CC[C@H]2[C@@H](C)C(OC(=O)/C=C/c3cc4ccccc4[nH]3)O[C@@H]3O[C@@]4(C)CC[C@@H]1[C@]32OO4 (stereo partly specified)	> 100 µM

Test system: MCF7
Assay: Cell cycle arrest in human MCF7 cells assessed as accumulation at G2 phase at 2.5 uM measured after 48 hrs by propidium iodide staining based flow cytometry (reference value: 23.25%)
Format: functional
Conditions: not given

Structure (SMILES)	Activity
C[C@@H]1CC[C@H]2[C@@H](C)C(OC(=O)c3c[nH]c4ccc(Cl)cc34)O[C@@H]3O[C@@]4(C)CC[C@@H]1[C@]32OO4 (stereo partly specified)	27.4%

Test system: MCF7
Assay: Cell cycle arrest in human MCF7 cells assessed as accumulation at S phase at 5 uM measured after 48 hrs by propidium iodide staining based flow cytometry (reference value: 24.31%)
Format: functional
Conditions: not given

Structure (SMILES)	Activity
C[C@@H]1CC[C@H]2[C@@H](C)C(OC(=O)c3c[nH]c4ccc(Cl)cc34)O[C@@H]3O[C@@]4(C)CC[C@@H]1[C@]32OO4 (stereo partly specified)	21.89%

Test system: MCF7
Assay: Cell cycle arrest in human MCF7 cells assessed as accumulation at G1 phase at 2.5 uM measured after 48 hrs by propidium iodide staining based flow cytometry (reference value: 52.44%)
Format: functional
Conditions: not given

Structure (SMILES)	Activity
C[C@@H]1CC[C@H]2[C@@H](C)C(OC(=O)c3c[nH]c4ccc(Cl)cc34)O[C@@H]3O[C@@]4(C)CC[C@@H]1[C@]32OO4 (stereo partly specified)	48.36%

Test system: not listed separately
Assay: Toxicity in human MCF7 cells assessed as inhibition of cell proliferation at 5 uM measured after 48 hrs by MTT assay
Format: cell-based
Conditions: not given

Structure (SMILES)	inhibition at 48 h, 5 µM
C[C@H]1[C@H](OC(=O)CCC(=O)OCCCn2cc(C#N)nc2Cl)O[C@@H]2O[C@@]3(C)CC[C@H]4[C@H](C)CC[C@@H]1[C@@]24OO3	12.8%
C[C@@H]1CC[C@H]2[C@@H](C)C(OC(=O)c3c[nH]c4ccc(Cl)cc34)O[C@@H]3O[C@@]4(C)CC[C@@H]1[C@]32OO4 (stereo partly specified)	32.1%
C[C@@H]1CC[C@H]2[C@@H](C)C(OC(=O)/C=C/c3cc4ccccc4[nH]3)O[C@@H]3O[C@@]4(C)CC[C@@H]1[C@]32OO4 (stereo partly specified)	5.38%

Test system: MCF7
Assay: Potency index, ratio of artemisinin IC50 to test compound IC50 for human MCF7 cells
Format: functional
Conditions: not given

Structure (SMILES)	Ratio IC50
C[C@@H]1CC[C@H]2[C@@H](C)C(OC(=O)c3c[nH]c4ccc(Cl)cc34)O[C@@H]3O[C@@]4(C)CC[C@@H]1[C@]32OO4 (stereo partly specified)	10

Test system: MDA-MB-231
Assay: Antiproliferative activity against human MDA-MB-231 cells measured after 48 hrs by MTT assay
Format: functional, cell-based
Conditions: MDA-MB-231, 48 h

Structure (SMILES)	IC50
C[C@H]1[C@H](OC(=O)CCC(=O)OCCCn2cc(C#N)nc2Cl)O[C@@H]2O[C@@]3(C)CC[C@H]4[C@H](C)CC[C@@H]1[C@@]24OO3	> 100 µM
C[C@@H]1CC[C@H]2[C@@H](C)C(OC(=O)c3c[nH]c4ccc(Cl)cc34)O[C@@H]3O[C@@]4(C)CC[C@@H]1[C@]32OO4 (stereo partly specified)	> 100 µM
C[C@@H]1CC[C@H]2[C@@H](C)C(OC(=O)/C=C/c3cc4ccccc4[nH]3)O[C@@H]3O[C@@]4(C)CC[C@@H]1[C@]32OO4 (stereo partly specified)	> 100 µM

Test system: MCF7
Assay: Cell cycle arrest in human MCF7 cells assessed as accumulation at S phase at 10 uM measured after 48 hrs by propidium iodide staining based flow cytometry (reference value: 24.31%)
Format: functional
Conditions: not given

Structure (SMILES)	Activity
C[C@@H]1CC[C@H]2[C@@H](C)C(OC(=O)c3c[nH]c4ccc(Cl)cc34)O[C@@H]3O[C@@]4(C)CC[C@@H]1[C@]32OO4 (stereo partly specified)	21.41%

Test system: MCF7
Assay: Cell cycle arrest in human MCF7 cells assessed as accumulation at G2 phase at 10 uM measured after 48 hrs by propidium iodide staining based flow cytometry (reference value: 23.25%)
Format: functional
Conditions: not given

Structure (SMILES)	Activity
C[C@@H]1CC[C@H]2[C@@H](C)C(OC(=O)c3c[nH]c4ccc(Cl)cc34)O[C@@H]3O[C@@]4(C)CC[C@@H]1[C@]32OO4 (stereo partly specified)	38.97%

Test system: MCF7
Assay: Cell cycle arrest in human MCF7 cells assessed as accumulation at G2 phase at 5 uM measured after 48 hrs by propidium iodide staining based flow cytometry (reference value: 23.25%)
Format: functional
Conditions: not given

Structure (SMILES)	Activity
C[C@@H]1CC[C@H]2[C@@H](C)C(OC(=O)c3c[nH]c4ccc(Cl)cc34)O[C@@H]3O[C@@]4(C)CC[C@@H]1[C@]32OO4 (stereo partly specified)	34.35%

Test system: MCF7
Assay: Antiproliferative activity against human MCF7 cells measured after 48 hrs by MTT assay
Format: functional, cell-based
Conditions: MCF7, 48 h

Structure (SMILES)	IC50
C[C@H]1[C@H](OC(=O)CCC(=O)OCCCn2cc(C#N)nc2Cl)O[C@@H]2O[C@@]3(C)CC[C@H]4[C@H](C)CC[C@@H]1[C@@]24OO3	13.8 µM
C[C@@H]1CC[C@H]2[C@@H](C)C(OC(=O)c3c[nH]c4ccc(Cl)cc34)O[C@@H]3O[C@@]4(C)CC[C@@H]1[C@]32OO4 (stereo partly specified)	5.25 µM
C[C@@H]1CC[C@H]2[C@@H](C)C(OC(=O)/C=C/c3cc4ccccc4[nH]3)O[C@@H]3O[C@@]4(C)CC[C@@H]1[C@]32OO4 (stereo partly specified)	> 50 µM

Test system: NCI/ADR-RES
Assay: Potentiation of adriamycin-induced antiproliferative activity against human MCF7/ADR cells assessed as fold reduction in adriamycin IC50 at 5 uM measured after 48 hrs by MTT assay
Format: functional
Conditions: not given

Structure (SMILES)	fold change (FC)
C[C@H]1[C@H](OC(=O)CCC(=O)OCCCn2cc(C#N)nc2Cl)O[C@@H]2O[C@@]3(C)CC[C@H]4[C@H](C)CC[C@@H]1[C@@]24OO3	8.51
C[C@@H]1CC[C@H]2[C@@H](C)C(OC(=O)c3c[nH]c4ccc(Cl)cc34)O[C@@H]3O[C@@]4(C)CC[C@@H]1[C@]32OO4 (stereo partly specified)	117
C[C@@H]1CC[C@H]2[C@@H](C)C(OC(=O)/C=C/c3cc4ccccc4[nH]3)O[C@@H]3O[C@@]4(C)CC[C@@H]1[C@]32OO4 (stereo partly specified)	61.05

Test system: MCF7
Assay: Cell cycle arrest in human MCF7 cells assessed as accumulation at S phase at 2.5 uM measured after 48 hrs by propidium iodide staining based flow cytometry (reference value: 24.31%)
Format: functional
Conditions: not given

Structure (SMILES)	Activity
C[C@@H]1CC[C@H]2[C@@H](C)C(OC(=O)c3c[nH]c4ccc(Cl)cc34)O[C@@H]3O[C@@]4(C)CC[C@@H]1[C@]32OO4 (stereo partly specified)	24.24%

Test system: A549
Assay: Antiproliferative activity against human A549 cells measured after 48 hrs by MTT assay
Format: functional, cell-based
Conditions: A549, 48 h

Structure (SMILES)	IC50
C[C@H]1[C@H](OC(=O)CCC(=O)OCCCn2cc(C#N)nc2Cl)O[C@@H]2O[C@@]3(C)CC[C@H]4[C@H](C)CC[C@@H]1[C@@]24OO3	19.6 µM
C[C@@H]1CC[C@H]2[C@@H](C)C(OC(=O)c3c[nH]c4ccc(Cl)cc34)O[C@@H]3O[C@@]4(C)CC[C@@H]1[C@]32OO4 (stereo partly specified)	6.17 µM
C[C@@H]1CC[C@H]2[C@@H](C)C(OC(=O)/C=C/c3cc4ccccc4[nH]3)O[C@@H]3O[C@@]4(C)CC[C@@H]1[C@]32OO4 (stereo partly specified)	> 50 µM

Test system: MCF7
Assay: Cell cycle arrest in human MCF7 cells assessed as accumulation at G1 phase at 5 uM measured after 48 hrs by propidium iodide staining based flow cytometry (reference value: 52.44%)
Format: functional
Conditions: not given

Structure (SMILES)	Activity
C[C@@H]1CC[C@H]2[C@@H](C)C(OC(=O)c3c[nH]c4ccc(Cl)cc34)O[C@@H]3O[C@@]4(C)CC[C@@H]1[C@]32OO4 (stereo partly specified)	43.76%

Test system: HepG2
Assay: Antiproliferative activity against human HepG2 cells measured after 48 hrs by MTT assay
Format: functional, cell-based
Conditions: HepG2, 48 h

Structure (SMILES)	IC50
C[C@H]1[C@H](OC(=O)CCC(=O)OCCCn2cc(C#N)nc2Cl)O[C@@H]2O[C@@]3(C)CC[C@H]4[C@H](C)CC[C@@H]1[C@@]24OO3	> 50 µM
C[C@@H]1CC[C@H]2[C@@H](C)C(OC(=O)c3c[nH]c4ccc(Cl)cc34)O[C@@H]3O[C@@]4(C)CC[C@@H]1[C@]32OO4 (stereo partly specified)	10.8 µM
C[C@@H]1CC[C@H]2[C@@H](C)C(OC(=O)/C=C/c3cc4ccccc4[nH]3)O[C@@H]3O[C@@]4(C)CC[C@@H]1[C@]32OO4 (stereo partly specified)	> 50 µM

Test system: MCF7
Assay: Cell cycle arrest in human MCF7 cells assessed as accumulation at G1 phase at 10 uM measured after 48 hrs by propidium iodide staining based flow cytometry (reference value: 52.44%)
Format: functional
Conditions: not given

Structure (SMILES)	Activity
C[C@@H]1CC[C@H]2[C@@H](C)C(OC(=O)c3c[nH]c4ccc(Cl)cc34)O[C@@H]3O[C@@]4(C)CC[C@@H]1[C@]32OO4 (stereo partly specified)	39.61%
